Like-named read-outs stand apart in the source and are kept apart here.
Assays:
Assay in all cases: Test C pre/postemergence
Assay type in all cases: in vivo
[1] = test system: goosegrass (Eleusine indica); details: Eleusine indica; for pest or weed control at 8 g/ha: 8 g ai/ha; for pest or weed control at 16 g/ha: 16 g ai/ha; for pest or weed control at 31 g/ha: 31 g ai/ha; for pest or weed control at 62 g/ha: 62 g ai/ha
How it was run: (§1)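 Injury scored visually 12–14 days after application on 0–100 scale (100 = complete control), relative to controls. Compounds, formulated with surfactant in non-phytotoxic solvent, applied to soil at planting (pre) or to 1- to 4-leaf plants 2–18 cm tall (post) in greenhouse.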

[2] = test system: common ragweed (Ambrosia elatior); details: Ambrosia artemisiifolia; for pest or weed control at 8 g/ha: 8 g ai/ha; for pest or weed control at 16 g/ha: 16 g ai/ha; for pest or weed control at 31 g/ha: 31 g ai/ha; for pest or weed control at 62 g/ha: 62 g ai/ha
How it was run: as §1

[3] = test system: pigweed (Amaranthus retroflexus); details: Amaranthus retroflexus; for pest or weed control at 8 g/ha: 8 g ai/ha; for pest or weed control at 16 g/ha: 16 g ai/ha; for pest or weed control at 31 g/ha: 31 g ai/ha; for pest or weed control at 62 g/ha: 62 g ai/ha
How it was run: as §1

[4] = test system: yellow nutsedge (Cyperus esculentus); details: Cyperus; for pest or weed control at 8 g/ha: 8 g ai/ha; for pest or weed control at 16 g/ha: 16 g ai/ha; for pest or weed control at 31 g/ha: 31 g ai/ha; for pest or weed control at 62 g/ha: 62 g ai/ha
How it was run: as §1

[5] = test system: Surinam grass (Brachiaria decumbens); details: Urochloa decumbens; for pest or weed control at 8 g/ha: 8 g ai/ha; for pest or weed control at 16 g/ha: 16 g ai/ha; for pest or weed control at 31 g/ha: 31 g ai/ha; for pest or weed control at 62 g/ha: 62 g ai/ha
How it was run: as §1

[6] = test system: crabgrass (Digitaria sanguinalis); details: Digitaria sanguinalis; for pest or weed control at 8 g/ha: 8 g ai/ha, read-out: Plant response rating, Crabgrass
How it was run: as §1

[7] = post-emergence, Postemergence, read-out: Plant response rating (scale of 0 to 100), Goosegrass
[8] = pre-emergence, Preemergence, scale 0 to 100, 0 no effect, 100 complete control, read-out: Plant response rating, Goosegrass
[9] = post-emergence, Postemergence, read-out: Plant response rating (scale of 0 to 100), Ragweed
[10] = pre-emergence, Preemergence, scale 0 to 100, 0 no effect, 100 complete control, read-out: Plant response rating, Ragweed
[11] = post-emergence, Postemergence, read-out: Plant response rating (scale of 0 to 100), Pigweed
[12] = pre-emergence, Preemergence, scale 0 to 100, 0 no effect, 100 complete control, read-out: Plant response rating, Pigweed
[13] = post-emergence, Postemergence, read-out: Plant response rating (scale of 0 to 100), Nutsedge, Yellow
[14] = pre-emergence, Preemergence, scale 0 to 100, 0 no effect, 100 complete control, read-out: Plant response rating, Nutsedge, Yellow
[15] = post-emergence, Postemergence, read-out: Plant response rating (scale of 0 to 100), Surinam Grass
[16] = pre-emergence, Preemergence, scale 0 to 100, 0 no effect, 100 complete control, read-out: Plant response rating, Surinam Grass

For `Nc1nc(-c2ccc(Br)cc2)nc(C(=O)O)c1Cl` [Compound 95, 6-amino-2-(4-bromophenyl)-5-chloro-4-pyrimidinecarboxylic acid], the pest or weed control at 8 g/ha ([1]; post-emergence, Postemergence, scale 0 to 100, read-out: Plant response rating, Goosegrass) was 50%, the pest or weed control at 16 g/ha [1, 7] was 65% and the pest or weed control at 31 g/ha [1, 7] was 75%. For the same compound, the pest or weed control at 62 g/ha [1, 7] was 80%, the pest or weed control at 8 g/ha ([1]; pre-emergence, Preemergence, scale 0 to 100 (0 no effect, 100 complete control), read-out: Plant response rating, Goosegrass) was 0% and the pest or weed control at 16 g/ha [1, 8] was 0%. The pest or weed control at 31 g/ha [1, 8] was 10%, the pest or weed control at 62 g/ha [1, 8] was 40% and the pest or weed control at 8 g/ha ([2]; post-emergence, Postemergence, scale 0 to 100, read-out: Plant response rating, Ragweed) was 90%. It also gave a pest or weed control at 16 g/ha [2, 9] of 95%, a pest or weed control at 31 g/ha [2, 9] of 95% and a pest or weed control at 62 g/ha [2, 9] of 95%. The pest or weed control at 8 g/ha ([2]; pre-emergence, Preemergence, scale 0 to 100 (0 no effect, 100 complete control), read-out: Plant response rating, Ragweed) was 65%, the pest or weed control at 16 g/ha [2, 10] was 90% and the pest or weed control at 31 g/ha [2, 10] was 100%. The pest or weed control at 62 g/ha [2, 10] was 100%, the pest or weed control at 8 g/ha ([3]; post-emergence, Postemergence, scale 0 to 100, read-out: Plant response rating, Pigweed) was 90% and the pest or weed control at 16 g/ha [3, 11] was 95%. The pest or weed control at 31 g/ha [3, 11] was 100%, the pest or weed control at 62 g/ha [3, 11] was 100% and the pest or weed control at 8 g/ha ([3]; pre-emergence, Preemergence, scale 0 to 100 (0 no effect, 100 complete control), read-out: Plant response rating, Pigweed) was 50%. It also gave a pest or weed control at 16 g/ha [3, 12] of 90%, a pest or weed control at 31 g/ha [3, 12] of 100% and a pest or weed control at 62 g/ha [3, 12] of 100%. The pest or weed control at 8 g/ha ([4]; post-emergence, Postemergence, scale 0 to 100, read-out: Plant response rating, Nutsedge, Yellow) was 55%, the pest or weed control at 16 g/ha [4, 13] was 60% and the pest or weed control at 31 g/ha [4, 13] was 60%. The pest or weed control at 62 g/ha [4, 13] was 75%, the pest or weed control at 8 g/ha ([4]; pre-emergence, Preemergence, scale 0 to 100 (0 no effect, 100 complete control), read-out: Plant response rating, Nutsedge, Yellow) was 0% and the pest or weed control at 16 g/ha [4, 14] was 40%. It also gave a pest or weed control at 31 g/ha [4, 14] of 60%, a pest or weed control at 62 g/ha [4, 14] of 60% and a pest or weed control at 8 g/ha ([5]; post-emergence, Postemergence, scale 0 to 100, read-out: Plant response rating, Surinam Grass) of 55%. It also gave a pest or weed control at 16 g/ha [5, 15] of 65%, a pest or weed control at 31 g/ha [5, 15] of 70% and a pest or weed control at 62 g/ha [5, 15] of 75%. For the same compound, the pest or weed control at 8 g/ha ([5]; pre-emergence, Preemergence, scale 0 to 100 (0 no effect, 100 complete control), read-out: Plant response rating, Surinam Grass) was 0%, the pest or weed control at 16 g/ha [5, 16] was 0% and the pest or weed control at 31 g/ha [5, 16] was 5%. For the same compound, the pest or weed control at 62 g/ha [5, 16] was 10%, the pest or weed control at 8 g/ha ([6]; post-emergence, Postemergence, scale 0 to 100) was 75% and the pest or weed control at 16 g/ha ([6]; post-emergence, Postemergence, 16 g ai/ha, read-out: Plant response rating (scale of 0 to 100), Crabgrass) was 75%. It also gave a pest or weed control at 31 g/ha ([6]; post-emergence, Postemergence, 31 g ai/ha, read-out: Plant response rating (scale of 0 to 100), Crabgrass) of 80%, a pest or weed control at 62 g/ha ([6]; post-emergence, Postemergence, 62 g ai/ha, read-out: Plant response rating (scale of 0 to 100), Crabgrass) of 80% and a pest or weed control at 8 g/ha ([6]; pre-emergence, Preemergence, scale 0 to 100 (0 no effect, 100 complete control)) of 0%.

— patent publication US8802597B2, “Herbicidal pyrimidines” (E I du Pont de Nemours and Company, priority 2003, dated 2014)
